What was measured:
Format in all cases: functional
Rattus norvegicus [1] = species on record: Rattus norvegicus; assay: In vitro inhibition of sodium-dependent high-affinity choline uptake activity (1 uM choline) at 2E-5 M concentration in the absence of thiosulfate
Rattus norvegicus [2] = species on record: Rattus norvegicus; assay: In vitro inhibition of sodium-dependent high-affinity choline uptake activity (1 uM choline) at 2E-5 M concentration in the presence of thiosulfate
Rattus norvegicus [3] = species on record: Rattus norvegicus; assay: Na-dependent high-affinity choline uptake at 25 nM concentration for 7.5 min post wash pre-incubation time.
Rattus norvegicus [4] = species on record: Rattus norvegicus; assay: inhibition of sodium-dependent high-affinity choline uptake activity at 25 nM concentration for 7.5 min post wash pre-incubation time.
Rattus norvegicus [5] = species on record: Rattus norvegicus; assay: In vitro inhibition of sodium-dependent high-affinity choline uptake activity (1 uM choline) at 1E-8 M concentration in the absence of thiosulfate
Rattus norvegicus [6] = species on record: Rattus norvegicus; assay: inhibition of sodium-dependent high-affinity choline uptake activity at 25 nM concentration for 15 min post wash pre-incubation time.
Rattus norvegicus [7] = species on record: Rattus norvegicus; assay: In vitro inhibition of sodium-dependent high-affinity choline uptake activity (1 uM choline) at 1E-7 M concentration in the presence of thiosulfate
Rattus norvegicus [8] = species on record: Rattus norvegicus; assay: Na-dependent high-affinity choline uptake at 25 nM concentration for 2.5 min post wash pre-incubation time.
Rattus norvegicus [9] = species on record: Rattus norvegicus; assay: inhibition of sodium-dependent high-affinity choline uptake activity at 25 nM concentration for 2.5 min post wash pre-incubation time.
Rattus norvegicus [10] = species on record: Rattus norvegicus; assay: In vitro inhibition of sodium-dependent high-affinity choline uptake activity (1 uM choline) at 5E-8 M concentration in the absence of thiosulfate
Rattus norvegicus [11] = species on record: Rattus norvegicus; assay: Na-dependent high-affinity choline uptake at 25 nM concentration for 15 min post wash preincubation time.
Rattus norvegicus [12] = species on record: Rattus norvegicus; assay: In vitro inhibition of sodium-dependent high-affinity choline uptake activity (1 uM choline) at 1E-7 M concentration in the absence of thiosulfate
Rattus norvegicus [13] = species on record: Rattus norvegicus; assay: In vitro inhibition of sodium-dependent high-affinity choline uptake activity (1 uM choline) at 5E-8 M concentration in the presence of thiosulfate

## OC1(c2ccccc2)CN(CCBr)CCO1 (configuration not stated)
Rattus norvegicus [1]
  Inhibition: 71%
Rattus norvegicus [2]
  Inhibition: 9%

## C[N+]1(C)CCOC(O)(c2ccccc2)C1 (configuration not stated)
Rattus norvegicus [1]
  Inhibition: 58%

## OC1(c2ccc(-c3ccc(C4(O)CN(CCBr)CCO4)cc3)cc2)CN(CCBr)CCO1 (configuration not stated)
Rattus norvegicus [3]
  Choline uptake: 59.8 pM (4 min)-1 (mg of protein)-1
Rattus norvegicus [4]
  Inhibition: 32.9%
Rattus norvegicus [5]
  Inhibition: 84%
Rattus norvegicus [6]
  Inhibition: 34%
Rattus norvegicus [7]
  Inhibition: 0%
Rattus norvegicus [8]
  Choline uptake: 58.8 pM (4 min)-1 (mg of protein)-1
Rattus norvegicus [9]
  Inhibition: 31.2%
Rattus norvegicus [10]
  Inhibition: 100%
Rattus norvegicus [11]
  Choline uptake: 54.9 pM (4 min)-1 (mg of protein)-1
Rattus norvegicus [12]
  Inhibition: 100%
Rattus norvegicus [13]
  Inhibition: 0%

## C[N+]1(C)CCOC(O)(c2ccc(-c3ccc(C4(O)C[N+](C)(C)CCO4)cc3)cc2)C1 (configuration not stated) [HEMICHOLINIUM-3]
Rattus norvegicus [5]
  Inhibition: 35%
Rattus norvegicus [10]
  Inhibition: 83%
Rattus norvegicus [13]
  Inhibition: 85%
